We go through nine compounds from patent US10954214B2 (Janssen Pharmaceutica NV, priority 2016, dated 2021).

For assay [1], the target named is full-length MALT1 protein (Strep-MALT1(1-824)-His) (Homo sapiens (Human), UniProt Q9UDY8). The experiment in a line: MALT1 Biochemical Protease Assay (Ac-LRSR-AMC substrate). The note with it: 10 nM FL MALT1, 200 μM Ac-LRSR-AMC, 4 h at RT; read-out: MALT1_Biochemical activity (Ac-LRSR-amc) IC50. The gist of the method: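 Fluorescence from AMC release off the quenched LRSR substrate was read after a 4 h reaction at RT. Values were normalised to no-enzyme and uninhibited controls and fitted for IC50 and Hill coefficient.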
Chain of full-length MALT1 protein (Strep-MALT1(1-824)-His) (Q9UDY8 whole entry): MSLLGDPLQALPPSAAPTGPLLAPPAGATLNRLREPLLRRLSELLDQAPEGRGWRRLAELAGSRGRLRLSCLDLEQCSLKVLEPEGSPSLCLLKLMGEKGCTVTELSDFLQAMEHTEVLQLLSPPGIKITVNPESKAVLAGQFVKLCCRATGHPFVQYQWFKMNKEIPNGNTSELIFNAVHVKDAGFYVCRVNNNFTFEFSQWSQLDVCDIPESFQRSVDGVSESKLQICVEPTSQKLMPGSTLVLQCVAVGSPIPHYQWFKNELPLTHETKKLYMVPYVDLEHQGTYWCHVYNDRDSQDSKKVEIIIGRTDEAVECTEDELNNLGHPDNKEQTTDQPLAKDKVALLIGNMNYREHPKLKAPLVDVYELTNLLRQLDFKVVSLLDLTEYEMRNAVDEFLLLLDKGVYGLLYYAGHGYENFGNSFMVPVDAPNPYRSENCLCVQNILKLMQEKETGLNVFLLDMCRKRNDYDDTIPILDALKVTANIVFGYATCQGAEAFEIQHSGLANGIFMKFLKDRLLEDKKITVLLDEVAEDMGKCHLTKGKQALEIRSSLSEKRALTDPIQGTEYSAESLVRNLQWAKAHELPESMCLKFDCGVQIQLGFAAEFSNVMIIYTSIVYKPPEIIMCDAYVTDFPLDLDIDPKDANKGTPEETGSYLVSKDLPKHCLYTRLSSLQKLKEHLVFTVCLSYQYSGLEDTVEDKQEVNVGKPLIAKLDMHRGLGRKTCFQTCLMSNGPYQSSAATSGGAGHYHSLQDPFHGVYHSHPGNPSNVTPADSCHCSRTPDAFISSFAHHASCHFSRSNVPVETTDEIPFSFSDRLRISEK

Assay [2] has as its system IL6 secretion by TMD8 ABC-DLBCL cells. The assay is described as follows: Human IL6 Mesoscale assay (TMD-8). It counts as cell-based. To be noted: Homo sapiens, TMD8; TMD-8 cells, 24 h. In short, it runs like this: (§1)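 100,000 cells/well treated with compound in 9 twofold steps from 15 μM to 58.6 nM (0.3% DMSO) for 24 h at 37° C; supernatant cytokine measured by MSD electrochemiluminescence sandwich immunoassay. DMSO wells set maximum signal, BTK inhibitor RN486 (30 nM to 131 pM) set maximum inhibition.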

For the next assay, the system named is OCI-Ly3 cells. The assay is described as follows: 4-day proliferation assay, OCI-Ly3. In kind it is cell-based, human. To be noted: Homo sapiens, 96 h, 4 days incubation, CellTiterGLO, read-out: Anti-proliferation: OCI-LY-3 IC50. As to the method:
(§2) To assess anti-proliferative effects, MALT1 inhibitor test compounds were tested in 4-day proliferation assays using three different DLBCL cell lines.
(§3) Cells should be kept between 0.5-2.5 million cells per mL during culturing and cells should be supplemented every 2-3 days with fresh 50 μM beta-mercaptoenthanol. No beta-mercaptoethanol is used during the proliferation assay. OCI-Ly7 cells were propagated in IMDM (ThermoFisher) supplemented with 10% fetal bovine serum (HyClone), 2 mM L-glutamine (Sigma Aldrich) and 50 μg/mL Gentamycin. Cell passage numbers should not exceed 30 (for OCI-Ly3 cells with passage number lower than 10 were used).
(§4) 10,000 TMD8, 10,000 OCI-Ly3 or 2,000 OCI-Ly7 cells were seeded in 100 μL media per well and incubated for 4 days at 37° C. and 5% CO2. Cell plating numbers were chosen based on growth curves to ensure linear cell growth. After 4 days of incubation 50 μL CellTiterGLO reagent (Promega) were added to each well and luminescence was measured on the Envision after 10 min of incubation at room temperature.
(§5) LC=median of the low control values
(§6) An estimate of the slope of the plot in terms of the Hill coefficient was also obtained.
(In general: In ATP-based viability assays light output follows the ATP content of the culture.)

The next assay deals with TMD8 cells. The assay is described as follows: 4-day proliferation assay, TMD8. It counts as cell-based. The note with it: Homo sapiens, 96 h, 4 days incubation, CellTiterGLO, read-out: Anti-proliferation: TMD-8 IC50. On the procedure:
as §2, §3, §4, §5, §6

Assay [3] relates to IL10 secretion by TMD8 ABC-DLBCL cells. The assay is described as follows: Human IL10 Mesoscale assay (TMD-8). In kind it is cell-based. The note with it: Homo sapiens, TMD8; TMD-8 cells, 24 h. In short, it runs like this:
as §1

`CC(C)Cc1c(C(=O)Nc2cnc(-n3nccn3)c(Cl)c2)cnn1-c1cccc2ncccc12` [Cpd 16, N-(5-Chloro-6-(2H-1,2,3-triazol-2-yl)pyridin-3-yl)-5-isobutyl-1-(quinolin-5-yl)-1H-pyrazole-4-carboxamide]: the IC50 in assay [1] was 724 nM; in assay [2], 1480 nM; in the assay with OCI-Ly3 cells, 580 nM; with TMD8 cells, 10700 nM.

`Cn1ccc(-c2ncc(NC(=O)c3cnn(-c4cccc5ccncc45)c3C(F)(F)F)cc2Cl)n1` [Cpd 21, N-(5-Chloro-6-(1-methyl-1H-pyrazol-3-yl)pyridin-3-yl)-1-(isoquinolin-8-yl)-5-(trifluoromethyl)-1H-pyrazole-4-carboxamide]: the IC50 in assay [1] was 1440 nM; in assay [2] it was greater than 15000 nM; in the assay with OCI-Ly3 cells it was roughly 12900 nM; with TMD8 cells, greater than 20000 nM.

Take `Cc1ccc2ncccc2c1-n1ncc(C(=O)Nc2cnc(-n3nccn3)c(Cl)c2)c1C(F)(F)F` [Cpd 27, N-(5-Chloro-6-(2H-1,2,3-triazol-2-yl)pyridin-3-yl)-1-(6-methylquinolin-5-yl)-5-(trifluoromethyl)-1H-pyrazole-4-carboxamide]: the IC50 turned out to be 35 nM in assay [1], 105 nM in assay [2], 1950 nM with OCI-Ly3 cells and 13800 nM with TMD8 cells.

On to `Cc1cncc2c(-n3ncc(C(=O)Nc4cnc(-n5nccn5)c(Cl)c4)c3C(F)(F)F)cccc12` [Cpd 33, N-(5-Chloro-6-(2H-1,2,3-triazol-2-yl)pyridin-3-yl)-1-(4-methylisoquinolin-8-yl)-5-(trifluoromethyl)-1H-pyrazole-4-carboxamide], for which the IC50 in assay [1] is 1100 nM; in assay [2], 7410 nM; in assay [3], 1050 nM; in the assay with OCI-Ly3 cells, greater than 20000 nM; with TMD8 cells, greater than 20000 nM.

As for `O=C(Nc1cnc(-n2nccn2)c(Cl)c1)c1cnn(-c2nccc3ccccc23)c1C(F)F` [Cpd 56, N-(5-Chloro-6-(2H-1,2,3-triazol-2-yl)pyridin-3-yl)-5-(difluoromethyl)-1-(isoquinolin-1-yl)-1H-pyrazole-4-carboxamide], the IC50 in assay [1] was 257 nM; in assay [2], 490 nM; in assay [3] it was 275 nM; in the assay with OCI-Ly3 cells, 540 nM; in the assay on TMD8 cells it was greater than 20000 nM.

`O=C(Nc1cnc(-n2nccn2)c(Cl)c1)c1cnn(-c2nccc3ccccc23)c1C(F)(F)F` [Cpd 57, N-(5-chloro-6-(2H-1,2,3-triazol-2-yl)pyridin-3-yl)-1-(isoquinolin-1-yl)-5-(trifluoromethyl)-1H-pyrazole-4-carboxamide]: the IC50 was 43 nM in assay [1]; 81 nM in assay [2]; 85 nM in assay [3]; 220 nM in the assay on OCI-Ly3 cells; roughly 8910 nM in the assay on TMD8 cells.

Turning to `Nc1nccc(-c2ccc(NC(=O)c3cnn(-c4cncc5ccccc45)c3C(F)(F)F)cc2Cl)n1` [Cpd 58, N-(4-(2-Aminopyrimidin-4-yl)-3-chlorophenyl)-1-(isoquinolin-4-yl)-5-(trifluoromethyl)-1H-pyrazole-4-carboxamide], the IC50 in assay [1] stood at 141 nM; in assay [2], 331 nM; in assay [3] it was 288 nM; in the assay with OCI-Ly3 cells it was 500 nM; with TMD8 cells, 4470 nM.

For `N#Cc1cc(NC(=O)c2cnn(-c3cncc4ccccc34)c2C(F)(F)F)ccc1-n1nccn1` [Cpd 59, N-(3-Cyano-4-(2H-1,2,3-triazol-2-yl)phenyl)-1-(isoquinolin-4-yl)-5-(trifluoromethyl)-1H-pyrazole-4-carboxamide], the IC50 in assay [1] worked out at 31 nM; in assay [2] it was 68 nM; in assay [3], 74 nM; in the assay with OCI-Ly3 cells, 140 nM; in the assay on TMD8 cells it was 6760 nM.

Turning to `O=C(Nc1cnc(-n2nccn2)c(F)c1)c1cnn(-c2cncc3ccccc23)c1C(F)(F)F` [Cpd 61, N-(5-fluoro-6-(2H-1,2,3-triazol-2-yl)pyridin-3-yl)-1-(isoquinolin-4-yl)-5-(trifluoromethyl)-1H-pyrazole-4-carboxamide], the IC50 was 102 nM in assay [1]; 263 nM in assay [2]; 224 nM in assay [3]; 1260 nM in the assay with OCI-Ly3 cells; roughly 14100 nM in the assay on TMD8 cells.
